Drawing on US9902696B2, “1,4-substituted piperidine derivatives” (Cephalon, Inc., priority 2015, dated 2018), this text covers IC50 for 38 compounds.

The structures appear in SMILES notation. Counter-ions that a name gives are not always drawn.

T1 sequence (P49327 whole entry): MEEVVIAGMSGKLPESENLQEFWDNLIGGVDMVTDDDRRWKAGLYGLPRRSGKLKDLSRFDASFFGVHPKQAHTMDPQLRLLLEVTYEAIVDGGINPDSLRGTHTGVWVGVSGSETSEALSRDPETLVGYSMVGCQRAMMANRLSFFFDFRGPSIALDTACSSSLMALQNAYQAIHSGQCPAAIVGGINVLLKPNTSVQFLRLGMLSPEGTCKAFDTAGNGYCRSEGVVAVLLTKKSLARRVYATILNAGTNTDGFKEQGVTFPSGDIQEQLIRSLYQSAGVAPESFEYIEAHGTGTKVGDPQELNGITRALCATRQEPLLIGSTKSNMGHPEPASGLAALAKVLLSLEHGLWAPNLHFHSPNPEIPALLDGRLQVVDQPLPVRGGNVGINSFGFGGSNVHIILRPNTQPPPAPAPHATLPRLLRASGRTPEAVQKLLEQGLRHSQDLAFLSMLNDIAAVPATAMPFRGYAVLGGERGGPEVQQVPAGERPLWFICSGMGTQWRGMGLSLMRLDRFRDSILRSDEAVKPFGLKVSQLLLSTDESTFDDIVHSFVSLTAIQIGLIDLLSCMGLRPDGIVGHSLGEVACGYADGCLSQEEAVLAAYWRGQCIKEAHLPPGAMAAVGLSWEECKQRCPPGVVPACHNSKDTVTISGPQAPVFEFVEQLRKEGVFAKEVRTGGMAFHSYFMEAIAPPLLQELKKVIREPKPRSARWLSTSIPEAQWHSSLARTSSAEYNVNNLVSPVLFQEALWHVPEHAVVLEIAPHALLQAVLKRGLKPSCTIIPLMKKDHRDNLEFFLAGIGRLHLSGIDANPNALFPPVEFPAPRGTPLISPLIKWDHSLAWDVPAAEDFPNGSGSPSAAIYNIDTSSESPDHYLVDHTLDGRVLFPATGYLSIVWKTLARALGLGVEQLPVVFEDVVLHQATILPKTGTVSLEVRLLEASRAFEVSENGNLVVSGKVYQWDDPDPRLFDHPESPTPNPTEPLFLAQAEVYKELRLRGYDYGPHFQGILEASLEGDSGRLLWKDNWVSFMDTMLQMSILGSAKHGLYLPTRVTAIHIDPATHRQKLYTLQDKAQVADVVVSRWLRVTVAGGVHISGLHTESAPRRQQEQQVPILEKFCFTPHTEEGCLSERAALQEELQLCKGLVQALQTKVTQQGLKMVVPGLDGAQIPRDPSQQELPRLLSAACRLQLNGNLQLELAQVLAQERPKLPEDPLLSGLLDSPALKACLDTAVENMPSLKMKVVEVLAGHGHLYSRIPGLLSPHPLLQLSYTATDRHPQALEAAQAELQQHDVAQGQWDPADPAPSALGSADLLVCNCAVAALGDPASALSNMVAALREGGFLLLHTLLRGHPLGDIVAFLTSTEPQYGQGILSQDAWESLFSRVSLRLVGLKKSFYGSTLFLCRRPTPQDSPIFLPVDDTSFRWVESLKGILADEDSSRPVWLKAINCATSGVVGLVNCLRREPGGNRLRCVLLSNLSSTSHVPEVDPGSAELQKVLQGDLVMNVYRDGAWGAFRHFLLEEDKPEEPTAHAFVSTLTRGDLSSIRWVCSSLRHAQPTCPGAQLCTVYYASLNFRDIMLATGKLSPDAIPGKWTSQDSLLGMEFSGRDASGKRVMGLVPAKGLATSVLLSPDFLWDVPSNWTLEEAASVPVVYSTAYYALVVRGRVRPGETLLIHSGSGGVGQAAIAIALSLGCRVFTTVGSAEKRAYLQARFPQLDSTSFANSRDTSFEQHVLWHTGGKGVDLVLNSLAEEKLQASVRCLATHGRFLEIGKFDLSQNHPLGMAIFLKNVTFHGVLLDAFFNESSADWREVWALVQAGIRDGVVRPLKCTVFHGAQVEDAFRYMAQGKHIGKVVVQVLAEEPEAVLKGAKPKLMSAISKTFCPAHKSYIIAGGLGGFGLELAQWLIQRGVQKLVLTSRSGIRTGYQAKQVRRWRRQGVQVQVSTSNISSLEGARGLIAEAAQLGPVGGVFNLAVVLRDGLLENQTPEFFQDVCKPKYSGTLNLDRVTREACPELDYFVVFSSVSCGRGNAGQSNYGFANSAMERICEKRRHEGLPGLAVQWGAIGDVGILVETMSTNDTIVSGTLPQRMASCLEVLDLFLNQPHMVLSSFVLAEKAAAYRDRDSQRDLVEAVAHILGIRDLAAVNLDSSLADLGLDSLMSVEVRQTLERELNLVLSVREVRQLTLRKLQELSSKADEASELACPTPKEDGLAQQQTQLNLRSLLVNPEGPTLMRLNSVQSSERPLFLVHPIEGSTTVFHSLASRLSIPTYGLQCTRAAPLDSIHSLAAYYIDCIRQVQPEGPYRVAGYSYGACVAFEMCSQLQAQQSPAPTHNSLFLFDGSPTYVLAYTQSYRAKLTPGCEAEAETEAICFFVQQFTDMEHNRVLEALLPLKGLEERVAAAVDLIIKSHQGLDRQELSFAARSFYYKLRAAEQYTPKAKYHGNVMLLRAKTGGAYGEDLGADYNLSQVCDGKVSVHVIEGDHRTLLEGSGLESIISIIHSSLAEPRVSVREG

The assay concerns the target T1, recombinant human baculovirus-expressed GST-tagged FASN (Homo sapiens, UniProt P49327).
T1 construct: GST
The experiment in a line: FASN enzyme activity assay, fluorescence-based detection of CoA with CPM. Format: biochemical. Conditions: 5 nM FASN, 150 μM NADPH, 10 μM acetyl-CoA, 25 μM malonyl-CoA, 90 minutes incubation; read-out: IC50 data for Compounds of Formulae I-V/V(a): Activity. An outline of the steps: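 CoA product reacted with thiol-reactive CPM (diluted to 50 μM in 70% ethanol), read at 390/530 nm after 30 min. Preceding reaction: 90 min, 5 nM recombinant GST-FASN, 150 μM NADPH, 10 μM acetyl-CoA, 25 μM malonyl-CoA, pH 7.5 HEPES, 0.5% DMSO. IC50s fitted by nonlinear sigmoidal regression.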
In the case of `Cc1cc(C)c(C(=O)N2CCC(Oc3ccc(-c4cnc5ccccc5c4)cc3)CC2)o1` [Example 122, (3,5-Dimethylfuran-2-yl)-[4-(4-quinolin-3-yl-phenoxy)-piperidin-1-yl]-methanone, HCl], the IC50 was 1000 to 10000 nM.

As to `O=C(c1ncco1)N1CCC(Oc2ccc(-c3cnc4ccccc4c3)cc2)CC1` [Example 123, Oxazol-2-yl-[4-(4-quinolin-3-yl-phenoxy)-piperidin-1-yl]-methanone; HCl], the IC50 lay in the range of 1000 to 10000 nM.

As for `O=C(c1ccon1)N1CCC(Oc2ccc(-c3cnc4ccccc4c3)cc2)CC1` [Example 124, Isoxazol-3-yl-[4-(4-quinolin-3-yl-phenoxy)-piperidin-1-yl]-methanone, HCl], the IC50 lay in the range of 1000 to 10000 nM.

`O=C(c1ccsn1)N1CCC(Oc2ccc(-c3cnc4ccccc4c3)cc2)CC1` [Example 125, Isothiazol-3-yl-[4-(4-quinolin-3-yl-phenoxy)-piperidin-1-yl]-methanone, HCl]: the IC50 fell in the range of 1000 to 10000 nM.

As to `O=C(C1CCCO1)N1CCC(Oc2ccc(-c3cnc4ccccc4c3)cc2)CC1` (centres unmarked) [Example 126, [4-(4-Quinolin-3-yl-phenoxy)-piperidin-1-yl]-(tetrahydrofuran-2-yl)-methanone, HCl], the IC50 lay in the range of 1 to 99 nM.

As for `O=C(c1ccccc1)N1CCC(Oc2ccc(-c3cnc4ccccc4c3)cc2)CC1` [Example 127, Phenyl-[4-(4-quinolin-3-yl-phenoxy)-piperidin-1-yl]-methanone, HCl], the IC50 was in the range of 1000 to 10000 nM.

`Cc1ccc(C)c(C(=O)N2CCC(Oc3ccc(-c4cnc5ccccc5c4)cc3)CC2)c1` [Example 128, (2,5-Dimethylphenyl)-[4-(4-quinolin-3-yl-phenoxy)-piperidin-1-yl]-methanone, HCl]: the IC50 was 1000 to 10000 nM.

Turning to `O=C(c1cccc(-c2ncc[nH]2)c1)N1CCC(Oc2ccc(-c3cnc4ccccc4c3)cc2)CC1` [Example 129, [3-(1H-Imidazol-2-yl)-phenyl]-[4-(4-quinolin-3-yl-phenoxy)-piperidin-1-yl]-methanone, HCl], the IC50 is 1000 to 10000 nM.

As for `O=C(c1cccc(-c2nc3ccccc3[nH]2)c1)N1CCC(Oc2ccc(-c3cnc4ccccc4c3)cc2)CC1` [Example 130, [3-(1H-Benzimidazol-2-yl)-phenyl]-[4-(4-quinolin-3-yl-phenoxy)-piperidin-1-yl]-methanone, HCl], the IC50 fell in the range of 1000 to 10000 nM.

Turning to `CONC(=O)N1CCC(Oc2ccc(-c3ccc4cccnc4c3OC)cc2)CC1` [Example 131, N-Methoxy-4-[4-(8-methoxy-7-quinolyl)phenoxy]piperidine-1-carboxamide, HCl], the IC50 lay in the range of 1 to 99 nM.

Turning to `CCC(=O)N1CCC(Oc2ccc(-c3cnc4ccccc4c3)cn2)CC1` [Example 132, 1-[4-(5-Quinolin-3-yl-pyridin-2-yloxy)-piperidin-1-yl]-propan-1-one, HCl], the IC50 was 1000 to 10000 nM.

`CC(C)C(=O)N1CCC(Oc2ccc(-c3cnc4ccccc4c3)cn2)CC1` [Example 133, 2-Methyl-1-[4-(5-quinolin-3-yl-pyridin-2-yloxy)-piperidin-1-yl]-propan-1-one, HCl]: the IC50 lay in the range of 1000 to 10000 nM.

`O=C(C1CC1)N1CCC(Oc2ccc(-c3cnc4ccccc4c3)cn2)CC1` [Example 134, Cyclopropyl-[4-(5-quinolin-3-yl-pyridin-2-yloxy)-piperidin-1-yl]-methanone, HCl]: the IC50 lay in the range of 1000 to 10000 nM.

As for `CCC(=O)N1CCC(Oc2ccc(-c3ccc4cccnc4c3)cn2)CC1` [Example 135, 1-[4-(5-Quinolin-7-yl-pyridin-2-yloxy)-piperidin-1-yl]-propan-1-one, HCl], the IC50 lay in the range of 100 to 999 nM.

With `CC(C)C(=O)N1CCC(Oc2ccc(-c3ccc4cccnc4c3)cn2)CC1` [Example 136, 2-Methyl-1-[4-(5-quinolin-7-yl-pyridin-2-yloxy)-piperidin-1-yl]-propan-1-one, HCl], the IC50 was in the range of 1000 to 10000 nM.

Take `O=C(C1CC1)N1CCC(Oc2ccc(-c3ccc4cccnc4c3)cn2)CC1` [Example 137, Cyclopropyl-[4-(5-quinolin-7-yl-pyridin-2-yloxy)-piperidin-1-yl]-methanone, HCl]: the IC50 was 100 to 999 nM.

`CC(C)C(=O)N1CCC(Oc2ncc(-c3cnc4ccccc4c3)cn2)CC1` [Example 138, 2-Methyl-1-[4-(5-quinolin-3-yl-pyrimidin-2-yloxy)-piperidin-1-yl]-propan-1-one, 2HCl]: the IC50 lay in the range of 1000 to 10000 nM.

Regarding `O=C(C1CC1)N1CCC(Oc2ncc(-c3cnc4ccccc4c3)cn2)CC1` [Example 139, Cyclopropyl-[4-(5-quinolin-3-yl-pyrimidin-2-yloxy)-piperidin-1-yl]-methanone, 2HCl], the IC50 fell in the range of 1000 to 10000 nM.

In the case of `CCC(=O)N1CCC(Oc2ccc(-c3cnc4ccccc4c3)nc2)CC1` [Example 140, 1-[4-(6-Quinolin-3-yl-pyridin-3-yloxy)-piperidin-1-yl]-propan-1-one, 2HCl], the IC50 was in the range of 1000 to 10000 nM.

Consider `CC(C)C(=O)N1CCC(Oc2ccc(-c3cnc4ccccc4c3)nc2)CC1` [Example 141, 2-Methyl-1-[4-(6-quinolin-3-yl-pyridin-3-yloxy)-piperidin-1-yl]-propan-1-one, 2HCl], for which the IC50 was in the range of 1000 to 10000 nM.

In the case of `O=C(C1CC1)N1CCC(Oc2ccc(-c3cnc4ccccc4c3)nc2)CC1` [Example 142, Cyclopropyl-[4-(6-quinolin-3-yl-pyridin-3-yloxy)-piperidin-1-yl]-methanone, 2HCl], the IC50 was in the range of 1000 to 10000 nM.

`CCC(=O)N1CCC(Oc2ccc(-c3ccc4cccnc4c3)nc2)CC1` [Example 144, 1-[4-(6-Quinolin-7-yl-pyridin-3-yloxy)-piperidin-1-yl]-propan-1-one, 2HCl]: the IC50 is 1000 to 10000 nM.

For `CC(C)C(=O)N1CCC(Oc2ccc(-c3ccc4cccnc4c3)nc2)CC1` [Example 145, 2-Methyl-1-[4-(6-quinolin-7-yl-pyridin-3-yloxy)-piperidin-1-yl]-propan-1-one, 2HCl], the IC50 lay in the range of 1000 to 10000 nM.

On to `O=C(C1CC1)N1CCC(Oc2ccc(-c3ccc4cccnc4c3)nc2)CC1` [Example 146, Cyclopropyl-[4-(6-quinolin-7-yl-pyridin-3-yloxy)-piperidin-1-yl]-methanone, 2HCl], for which the IC50 lay within 1000 to 10000 nM.

With `CCC(=O)N1CCC(Oc2ccc(-c3ccc4cnccc4c3)nc2)CC1` [Example 147, 1-[4-(6-Isoquinolin-6-yl-pyridin-3-yloxy)-piperidin-1-yl]-propan-1-one, 2HCl], the IC50 was in the range of 1000 to 10000 nM.

On to `CC(C)C(=O)N1CCC(Oc2ccc(-c3ccc4cnccc4c3)nc2)CC1` [Example 148, 1-[4-(6-Isoquinolin-6-yl-pyridin-3-yloxy)-piperidin-1-yl]-2-methyl-propan-1-one, 2HCl], for which the IC50 fell in the range of 1000 to 10000 nM.

In the case of `O=C(C1CC1)N1CCC(Oc2ccc(-c3ccc4cnccc4c3)nc2)CC1` [Example 149, Cyclopropyl-[4-(6-isoquinolin-6-yl-pyridin-3-yloxy)-piperidin-1-yl]-methanone, 2HCl], the IC50 lay within 1000 to 10000 nM.

In the case of `CCC(=O)N1CCC(C(=O)N(C)c2ccc(-c3ccc4cccnc4c3)cc2)CC1` [Example 150, 1-Propionyl-piperidine-4-carboxylic acid methyl-(4-quinolin-7-yl-phenyl)-amide], the IC50 fell in the range of 100 to 999 nM.

Take `CCC(=O)N1CCC(C(=O)N(C)c2ccc(-c3ccc4cnccc4c3)cc2)CC1` [Example 151, 1-Propionyl-piperidine-4-carboxylic acid (4-isoquinolin-6-yl-phenyl)-methylamide]: the IC50 was 100 to 999 nM.

`O=C(C1OCCO1)N1CCC(Oc2ccc(-c3cnc4ccccc4c3)cc2)CC1` [Example 152, HCl]: the IC50 lay in the range of 1 to 99 nM.

For `O=CN1CCC(Oc2ccc(-c3cnc4ccccc4c3)cc2)CC1` [Example 153, 4-(4-Quinolin-3-yl-phenoxy)-piperidine-1-carbaldehyde, HCl], the IC50 fell in the range of 1000 to 10000 nM.

With `C[C@@H]1C[C@H](C(=O)N2CCC(Oc3ccc(-c4cnc5ccccc5c4)cc3)CC2)O[C@@H]1C` [Example 156, ((2R,4R,5R)/(2S,4S,5 S)-4,5-Dimethyl-tetrahydrofuran-2-yl)-[4-(4-quinolin-3-yl-phenoxy)-piperidin-1-yl]-methanone, HCL], the IC50 lay within 100 to 999 nM.

With `CCC(=O)N1CCC(N(C)C(=O)c2ccc(-c3ccc4cnccc4c3)cc2F)CC1` [Example 158, 2-Fluoro-4-isoquinolin-6-yl-N-methyl-N-(1-propionyl-piperidin-4-yl)-benzamide], the IC50 lay within 1000 to 10000 nM.

For the compound `CCC(=O)N1CCC(Oc2ccc(-c3ccc4nnc(C(F)(F)F)n4c3)cc2)CC1` [Example 159, 1-{4-[4-(3-Trifluoromethyl-1,2,4-triazolo[4,3-a]pyridin-6-yl)-phenoxy]-piperidin-1-yl}-propan-1-one, HCl], the IC50 fell in the range of 1000 to 10000 nM.

On to `O=C(C1CC1)N1CCC(Oc2ccc(-c3ccc4nnc(C(F)(F)F)n4c3)cc2)CC1` [Example 160, Cyclopropyl-{4-[4-(3-trifluoromethyl-1,2,4-triazolo[4,3-a]pyridin-6-yl)-phenoxy]-piperidin-1-yl}-methanone, HCl], for which the IC50 lay within 1000 to 10000 nM.

Take `O=C([C@H]1CCCO1)N1CCC(Oc2ccc(-c3ccc4nnc(C(F)(F)F)n4c3)cc2)CC1` [Example 161, (R)-Tetrahydrofuran-2-yl-{4-[4-(3-trifluoromethyl-1,2,4-triazolo[4,3-a]pyridin-6-yl)-phenoxy]-piperidin-1-yl}-methanone]: the IC50 is 1000 to 10000 nM.

Turning to `CS(=O)(=O)N1CCC(Oc2ccc(-c3cnc4ccccc4c3)cc2)CC1` [Example 162, 3-[4-(1-Methanesulfonyl-piperidin-4-yloxy)-phenyl]-quinoline], the IC50 lay in the range of 1000 to 10000 nM.

Take `O=C(C1CC(F)(F)CO1)N1CCC(Oc2ccc(-c3cnc4ccccc4c3)cc2)CC1` (centres unmarked) [Example 163, (4,4-Difluorotetrahydrofuran-2-yl)-[4-(4-quinolin-3-yl-phenoxy)-piperidin-1-yl]-methanone, HCl]: the IC50 fell in the range of 100 to 999 nM.
